# Measured values taken from patent US6444644B1, “Anticoagulant peptide fragments derived from apolipoprotein B-100” (University College London, priority 1996, dated 2002).
# No end group written: not given here.
# How the values were obtained:
# thromboplastin [1] = molecular target: T1, thromboplastin (Homo sapiens, UniProt P13726); experiment: Time-course inhibition of thromboplastin procoagulant activity (one-stage prothrombin time and two-stage amidolytic assay); format: biochemical; details: 500 nM, thromboplastin 100 nM (10 U/ml), 37° C.
# T1 construct: purchased Gamidor Ltd. (Oxfordshire, U.K.)
# T1 sequence (P13726 33-295): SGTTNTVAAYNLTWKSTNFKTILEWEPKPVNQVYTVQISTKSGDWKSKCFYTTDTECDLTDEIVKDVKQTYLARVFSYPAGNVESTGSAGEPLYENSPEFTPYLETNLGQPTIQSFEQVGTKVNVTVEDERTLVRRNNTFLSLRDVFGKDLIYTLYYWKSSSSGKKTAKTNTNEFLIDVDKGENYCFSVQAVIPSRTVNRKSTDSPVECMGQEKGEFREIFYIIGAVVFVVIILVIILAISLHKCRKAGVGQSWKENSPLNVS
# Procedure: The one stage prothrombin time assay was carried out by the addition of 100 μl of the sample to 100 μl of 25 mM CaCl2 solution and incubation prior to addition of 100 μl of control plasma. The clotting time was measured on the coagulometer. The two-stage amidolytic assay was carried according to published procedures. In all cases the thromboplastin activity was calculated from a standard curve prepared previously and the percentage inhibition was calculated as 100×[…].
# The apolipoprotein B-100 control peptide (fragment 3358-3372) containing the sequence TRLTRKRGLKLATAL was reconstituted in distilled water to 1 mM. The freeze-dried samples were reconstituted in distilled water to a concentration of 1 mM. Two 200 μl samples of thromboplastin (10 U/ml) were incubated with 500 nM KRAD-14 or apolipoprotein B-100 control peptide at 37° C. for 45 min. Another set of 200 μl samples of thromboplastin (10 U/ml) were incubated with either 500 nM KRAD-98 or the chloramphenicol acetyltransferase control protein. […] Following the incubation the thromboplastin activity in all the samples was measured by means of the one-stage prothrombin time assay and the two-stage amidolytic assay and the percentage inhibition calculated against the control containing distilled water.
# The above experiments were repeated using 1 ml samples containing recombinant thromboplastin (10 U/ml) mixed with either 500 nM KRAD-14, 500 nM KRAD-98 or 500 nM apolipoprotein B-100, reconstituted as described before. The concentrations used are equivalent to that of apolipoprotein B-100 in normal plasma. 100 μl of the each sample was removed immediately and assayed for thromboplastin activity, by means of the one-stage prothrombin time assay. The rest of the samples were incubated at 37° C. and further 100 μl samples were removed at intervals up to 120 min and measured as before. The percentage inhibition was calculated against a control sample of thromboplastin.
# Three 1 ml samples containing recombinant thromboplastin (10 U/ml) were mixed with 500 nM KRAD-14 (solid square), 500 nM KRAD-98 (open square) or 500 nM apolipoprotein […] (triangle), reconstituted as described before. The concentrations used are equivalent to that of apolipoprotein B-100 in normal plasma. 100 μl of the each sample was removed immediately and assayed for thromboplastin activity, by means of the one-stage prothrombin time assay. The rest of the samples were incubated at 37° C. and further 100 μl samples were removed at intervals up to 120 min and measured as before. The thromboplastin activity was calculated from a standard curve prepared previously and the percentage inhibition was calculated as 100×[…]. The curves are typical of data from four sets of experiments.
# factor V = experiment: Influence on factor V procoagulant activity (factor V-deficient plasma); format: biochemical; details: factor V 1 μM, 37° C., preactivated factor V deficient plasma; read-out: Kdapp, inhibition of coagulation upon pre-incubation with factor V
# Procedure: Samples (1 ml) of either KRAD-14 peptide (500 nM) or the control peptide (500 nM) were incubated with pre-activated factor V (100 nM) at 37° C. and the factor V activity measured at the beginning and at intervals up to 60 min as follows. The procoagulant activity of factor V was measured by the addition of 100 μl of the sample to factor V-deficient plasma (100 μl) pre-activated by incubation (2 min) with thromboplastin (200 nM) in the presence of CACl2 (25 mM), and measuring the clotting time. The activity was measured against a standard curve and the percentage inhibition calculated against the initial factor V activity. The curves are typical of data from three separate experiments.
# Three 1 ml samples containing recombinant KRAD-14 peptide (20 (♦) 40 (▾) and 80 (▪) nM) were mixed with factor V (1 μM). 100 μl of the each sample was removed immediately and assayed for […] by addition to factor V-deficient plasma, pre-activated by incubation (2 min) with thromboplastin (200 nM) in the presence of CaCl2 (25 mM), and measuring the clotting time. The rest of the samples were incubated at 37° C. and further 100 μl samples were removed at intervals up to 40 min and measured as before. The activity was measured against a standard curve and the percentage inhibition calculated against the initial factor V activity. The curves are typical of data from 3 separate experiments.
# [2] = tested on: factor VII/thromboplastin; experiment: Effect on activation and activity of factor VII (clotting in factor VII deficient plasma); format: biochemical
# Procedure: In order to assess whether the action of KRAD-14 peptide was directed to the proteolytic activity of factor VIIa/thromboplastin or the activation of factor VII by interaction with thromboplastin, first thromboplastin (200 nM) and factor VII (200 nM) were incubated for 10 min in the presence of 25 mM CaCl2, prior to addition of KRAD-14 peptide and a further 10 min incubation. The samples were then assayed by addition to factor VII deficient plasma and measuring the clotting time. Appropriate controls devoid of KRAD-14 peptide were included in each experiment.
# In order to assess whether the action of KRAD-14 peptide was directed to the proteolytic activity of factor VIIa/thromboplastin or the activation of factor VII by interaction with thromboplastin, first thromboplastin (200 nM) and factor VII (200 nM) were incubated for 10 min in the presence of 25 mM CaCl2, prior to addition of […] (500 nM) and a further 10 min incubation. In the second experiment thromboplastin, factor VII and factor Xa (100 nM) were pre-incubated for 10 min in the presence of 25 mM CaCl2, prior to addition of KRAD-14 peptide and a further 10 min incubation. The samples were then assayed by addition to factor VII deficient plasma and measuring the clotting time. […] Conversely, it was able to inhibit the activation of the pro-enzyme (inhibition=74%+8) (Table 2). […]
# thromboplastin [3] = molecular target: T1, thromboplastin; experiment: Stability of the inhibitory effect of KRAD-14 following reconstitution; format: physicochemical
# Procedure: However, KRAD-14 was effective at concentration as low as 50 nM. Moreover, the inhibition was unstable and completely disappeared after approximately 8 min following reconstitution. This deterioration was partially stabilised by adjusting the pH and addition of 5 nM bovine serum albumin as a stabiliser. However, the inhibitory effect deteriorated rapidly, completely disappearing after 15 min, following reconstitution.
# platelets = experiment: Activation of platelets by thrombin; format: cell-based
sequence,measurement,setting,value
KAQSKKNKHRHSTT [KRAD-14],inhibition at 0.5 µM,thromboplastin [1]; 2 min incubation,90%
same,inhibition at 0.5 µM,thromboplastin [1]; 4 min incubation (maximum),98%
same,Kd,factor V,285 nM
same,inhibition of the activity of factor VIIa,"[2]; peptide 500 nM added after pre-incubation, further 10 min, factor VII deficient plasma",12%
same,inhibition of the activation of the pro-enzyme (factor VII),"[2]; thromboplastin 200 nM, factor VII 200 nM, 25 mM CaCl2, peptide 500 nM, 10 min",74%
same,time after reconstitution at which the inhibition completely disappeared,thromboplastin [3]; no stabiliser,approximately 8 min
same,time after reconstitution at which the inhibitory effect completely disappeared,thromboplastin [3]; pH adjusted and 5 nM bovine serum albumin added as a stabiliser,15 min
same,effect on the activation of platelets by thrombin,platelets,seems to affect the activation of platelets by thrombin
